In US11136329B2, “JAK inhibitors” (Vimalan Biosciences, Inc., priority 2019, dated 2021):

What was measured:
Format in all cases: biochemical
[1] = target: JAK1 (Homo sapiens (Human), UniProt P23458); test: JAK/TYK2 assay (Kinase Glo luminescence), JAK1; conditions: 7.5 nM enzyme, 2 uM ATP, 30 uM IRS-1, 1 hr
Outline: (§1)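 Recombinant kinases incubated with compound (10-point 3-fold series, 10000–0.51 nM final) and substrate in 20 mM HEPES, 10 mM MgCl2, 0.01% Tween, 1 mM DTT, pH 7.5, at 25 °C for 1–2 h. Kinase-Glo luminescence, inversely proportional to kinase activity; no-compound wells as positive control.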

[2] = target: JAK2 (Homo sapiens (Human), UniProt O60674); test: JAK/TYK2 assay (Kinase Glo luminescence), JAK2; conditions: 0.8 nM enzyme, 2 uM ATP, 4 uM pEY, 1 hr
Sequence of JAK2 (O60674 whole entry, species assumed): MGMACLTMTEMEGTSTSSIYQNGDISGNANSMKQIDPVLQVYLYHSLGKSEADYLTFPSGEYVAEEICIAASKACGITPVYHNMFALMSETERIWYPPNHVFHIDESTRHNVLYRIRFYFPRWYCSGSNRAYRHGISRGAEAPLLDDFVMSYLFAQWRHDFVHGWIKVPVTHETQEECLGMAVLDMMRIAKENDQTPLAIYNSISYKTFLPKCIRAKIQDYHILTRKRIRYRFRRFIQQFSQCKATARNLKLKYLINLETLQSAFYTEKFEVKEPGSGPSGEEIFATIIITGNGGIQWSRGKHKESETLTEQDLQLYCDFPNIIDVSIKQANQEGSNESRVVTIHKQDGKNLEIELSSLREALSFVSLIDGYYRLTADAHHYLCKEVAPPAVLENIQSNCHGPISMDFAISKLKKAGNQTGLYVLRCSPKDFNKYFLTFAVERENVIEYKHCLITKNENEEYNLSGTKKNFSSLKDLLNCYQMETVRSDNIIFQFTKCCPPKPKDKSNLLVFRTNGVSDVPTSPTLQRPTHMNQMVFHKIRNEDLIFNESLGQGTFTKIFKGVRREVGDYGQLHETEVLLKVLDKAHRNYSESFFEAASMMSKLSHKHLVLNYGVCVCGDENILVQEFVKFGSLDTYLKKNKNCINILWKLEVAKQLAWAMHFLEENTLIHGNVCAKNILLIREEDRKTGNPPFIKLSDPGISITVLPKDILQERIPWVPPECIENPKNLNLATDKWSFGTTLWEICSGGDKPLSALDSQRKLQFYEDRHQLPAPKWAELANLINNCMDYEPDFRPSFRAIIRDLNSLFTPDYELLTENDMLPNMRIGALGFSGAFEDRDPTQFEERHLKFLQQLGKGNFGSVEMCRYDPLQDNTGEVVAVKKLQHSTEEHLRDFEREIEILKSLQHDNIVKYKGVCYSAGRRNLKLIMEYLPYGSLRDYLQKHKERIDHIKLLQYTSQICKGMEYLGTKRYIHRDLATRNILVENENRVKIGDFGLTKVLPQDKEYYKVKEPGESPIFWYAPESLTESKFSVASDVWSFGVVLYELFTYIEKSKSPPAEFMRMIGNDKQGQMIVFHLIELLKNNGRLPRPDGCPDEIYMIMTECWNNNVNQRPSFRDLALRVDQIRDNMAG
Outline: as §1

[3] = target: JAK3 (Homo sapiens (Human), UniProt P52333); test: JAK/TYK2 assay (Kinase Glo luminescence), JAK3; conditions: 1.5 nM enzyme, 2 uM ATP, 4 uM pEY, 1 hr
Sequence of JAK3 (P52333 whole entry, species assumed): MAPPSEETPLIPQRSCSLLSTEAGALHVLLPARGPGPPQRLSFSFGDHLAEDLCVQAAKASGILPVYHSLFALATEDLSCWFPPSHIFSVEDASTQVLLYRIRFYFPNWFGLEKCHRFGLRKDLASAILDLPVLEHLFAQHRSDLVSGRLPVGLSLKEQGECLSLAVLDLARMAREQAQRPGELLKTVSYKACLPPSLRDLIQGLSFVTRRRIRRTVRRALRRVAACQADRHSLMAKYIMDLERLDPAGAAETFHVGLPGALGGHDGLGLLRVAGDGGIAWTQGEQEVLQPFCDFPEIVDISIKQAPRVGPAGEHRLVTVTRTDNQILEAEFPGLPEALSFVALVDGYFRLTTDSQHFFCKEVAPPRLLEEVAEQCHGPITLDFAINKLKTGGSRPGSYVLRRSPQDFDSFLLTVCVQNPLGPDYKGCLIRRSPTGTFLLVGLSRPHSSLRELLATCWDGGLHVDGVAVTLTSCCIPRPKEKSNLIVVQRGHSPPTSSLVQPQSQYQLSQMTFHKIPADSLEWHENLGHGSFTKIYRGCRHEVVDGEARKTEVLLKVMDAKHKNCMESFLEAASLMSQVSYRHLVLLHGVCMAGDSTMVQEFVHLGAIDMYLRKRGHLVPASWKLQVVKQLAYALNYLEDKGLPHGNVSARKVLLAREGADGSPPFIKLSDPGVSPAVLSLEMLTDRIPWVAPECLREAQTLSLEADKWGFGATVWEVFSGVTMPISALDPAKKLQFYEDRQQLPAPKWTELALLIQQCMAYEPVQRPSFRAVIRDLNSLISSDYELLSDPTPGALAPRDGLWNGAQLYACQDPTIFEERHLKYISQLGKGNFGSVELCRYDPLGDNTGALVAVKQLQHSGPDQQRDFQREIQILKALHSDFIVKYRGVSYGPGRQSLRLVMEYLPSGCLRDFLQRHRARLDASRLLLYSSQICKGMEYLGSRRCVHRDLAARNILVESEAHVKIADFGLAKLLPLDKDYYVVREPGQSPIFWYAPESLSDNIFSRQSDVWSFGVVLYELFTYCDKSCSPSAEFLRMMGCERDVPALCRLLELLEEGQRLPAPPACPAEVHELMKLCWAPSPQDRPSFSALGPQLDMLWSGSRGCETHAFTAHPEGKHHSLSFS
Outline: as §1

[4] = target: TYK2 (Homo sapiens (Human), UniProt P29597); test: JAK/TYK2 assay (Kinase Glo luminescence), TYK2; conditions: 9 nM enzyme, 2 uM ATP, 30 uM IRS-1, 1 hr
Sequence of TYK2 (P29597 whole entry, species assumed): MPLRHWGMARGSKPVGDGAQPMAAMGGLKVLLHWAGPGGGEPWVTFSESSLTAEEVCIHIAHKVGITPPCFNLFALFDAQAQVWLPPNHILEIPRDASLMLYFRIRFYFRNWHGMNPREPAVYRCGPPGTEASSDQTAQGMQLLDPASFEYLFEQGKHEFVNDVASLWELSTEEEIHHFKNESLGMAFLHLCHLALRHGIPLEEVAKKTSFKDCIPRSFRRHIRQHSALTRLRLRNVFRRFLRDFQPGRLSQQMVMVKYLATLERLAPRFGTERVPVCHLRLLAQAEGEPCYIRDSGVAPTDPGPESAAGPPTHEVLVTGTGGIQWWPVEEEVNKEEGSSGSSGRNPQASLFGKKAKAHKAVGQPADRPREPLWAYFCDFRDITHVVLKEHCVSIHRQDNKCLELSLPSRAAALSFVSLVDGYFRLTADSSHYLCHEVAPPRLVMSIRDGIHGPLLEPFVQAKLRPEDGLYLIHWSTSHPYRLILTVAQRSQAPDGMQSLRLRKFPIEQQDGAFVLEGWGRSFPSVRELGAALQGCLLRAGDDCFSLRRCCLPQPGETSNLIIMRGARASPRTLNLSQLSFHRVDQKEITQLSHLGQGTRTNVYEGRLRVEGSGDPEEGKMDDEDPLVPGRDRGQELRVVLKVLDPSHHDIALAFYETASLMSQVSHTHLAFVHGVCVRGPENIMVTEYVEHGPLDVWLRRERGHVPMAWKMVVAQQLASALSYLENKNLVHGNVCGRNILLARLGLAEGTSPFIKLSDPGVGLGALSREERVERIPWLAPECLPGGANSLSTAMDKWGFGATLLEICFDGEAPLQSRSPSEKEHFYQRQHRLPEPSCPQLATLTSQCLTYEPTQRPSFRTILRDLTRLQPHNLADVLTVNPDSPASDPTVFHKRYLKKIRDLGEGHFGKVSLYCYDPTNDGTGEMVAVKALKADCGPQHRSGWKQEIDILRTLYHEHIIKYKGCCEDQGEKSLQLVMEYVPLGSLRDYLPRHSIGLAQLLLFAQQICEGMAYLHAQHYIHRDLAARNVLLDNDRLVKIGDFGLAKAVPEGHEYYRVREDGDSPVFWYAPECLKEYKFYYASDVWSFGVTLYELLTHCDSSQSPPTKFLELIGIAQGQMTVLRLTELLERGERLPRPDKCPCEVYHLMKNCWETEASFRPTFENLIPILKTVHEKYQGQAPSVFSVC
Outline: as §1

Sequence of JAK1 (P23458 whole entry, species assumed): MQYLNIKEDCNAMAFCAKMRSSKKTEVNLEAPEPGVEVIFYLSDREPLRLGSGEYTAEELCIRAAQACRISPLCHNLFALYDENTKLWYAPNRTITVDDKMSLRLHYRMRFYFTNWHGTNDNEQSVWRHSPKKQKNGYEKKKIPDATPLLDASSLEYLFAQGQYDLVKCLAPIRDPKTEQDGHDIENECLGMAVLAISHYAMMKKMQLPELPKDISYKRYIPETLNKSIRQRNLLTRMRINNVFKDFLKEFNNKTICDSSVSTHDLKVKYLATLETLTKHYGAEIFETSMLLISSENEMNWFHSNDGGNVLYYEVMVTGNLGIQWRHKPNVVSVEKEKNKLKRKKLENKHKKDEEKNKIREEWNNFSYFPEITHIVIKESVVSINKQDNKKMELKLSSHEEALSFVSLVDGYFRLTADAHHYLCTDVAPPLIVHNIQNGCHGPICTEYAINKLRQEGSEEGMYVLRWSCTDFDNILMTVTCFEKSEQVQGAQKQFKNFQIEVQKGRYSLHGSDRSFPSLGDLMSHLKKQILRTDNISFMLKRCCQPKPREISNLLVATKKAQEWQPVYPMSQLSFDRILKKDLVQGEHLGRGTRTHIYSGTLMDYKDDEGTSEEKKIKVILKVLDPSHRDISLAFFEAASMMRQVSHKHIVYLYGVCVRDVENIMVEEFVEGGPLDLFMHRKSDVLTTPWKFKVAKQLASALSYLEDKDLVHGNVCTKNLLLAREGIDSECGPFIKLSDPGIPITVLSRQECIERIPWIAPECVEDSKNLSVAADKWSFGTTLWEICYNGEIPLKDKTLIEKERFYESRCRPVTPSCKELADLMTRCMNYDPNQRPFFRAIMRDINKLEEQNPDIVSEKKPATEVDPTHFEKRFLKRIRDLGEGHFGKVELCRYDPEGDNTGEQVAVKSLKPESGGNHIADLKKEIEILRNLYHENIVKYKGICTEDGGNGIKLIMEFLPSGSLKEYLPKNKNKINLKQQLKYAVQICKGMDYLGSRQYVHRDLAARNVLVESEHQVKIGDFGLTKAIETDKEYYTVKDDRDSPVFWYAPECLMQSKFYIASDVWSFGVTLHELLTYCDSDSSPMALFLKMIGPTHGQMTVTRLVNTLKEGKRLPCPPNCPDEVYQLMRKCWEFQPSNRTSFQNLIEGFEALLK

CC(C)OC(=O)Cn1cc(Nc2ncc3ccn(C[C@H]4CC[C@H](O)CC4)c3n2)cn1 [Compound 122, isopropyl 2-(4-((7-(((1r,4r)-4-hydroxycyclohexyl)methyl)-7H-pyrrolo[2,3-d]pyrimidin-2-yl)amino)-1H-pyrazol-1-yl)acetate]
IC50 [1]: < 100 nM
IC50 [2]: < 100 nM
IC50 [3]: < 100 nM
IC50 [4]: < 100 nM

CCOC(=O)Cn1cc(Nc2ncc3ccn(C[C@H]4CC[C@H](N)CC4)c3n2)cn1 [Compound 127, ethyl 2-(4-((7-(((1r,4r)-4-aminocyclohexyl)methyl)-7H-pyrrolo[2,3-d]pyrimidin-2-yl)amino)-1H-pyrazol-1-yl)acetate]
IC50 [1]: < 100 nM
IC50 [2]: < 100 nM
IC50 [3]: < 100 nM
IC50 [4]: < 100 nM

CCOC(=O)Cn1cc(Nc2ncc3ccn(C[C@H]4CC[C@@H](OC)CC4)c3n2)cn1 [Compound 128, ethyl 2-(4-((7-(((1s,4s)-4-methoxycyclohexyl)methyl)-7H-pyrrolo[2,3-d]pyrimidin-2-yl)amino)-1H-pyrazol-1-yl)acetate]
IC50 [1]: 1000 to 10000 nM
IC50 [2]: 100 to 1000 nM
IC50 [3]: 100 to 1000 nM
IC50 [4]: 100 to 1000 nM

CCOC(=O)Cn1cc(Nc2ncc3ccn(C[C@H]4CC[C@H](OC)CC4)c3n2)cn1 [Compound 129, ethyl 2-(4-((7-(((1r,4r)-4-methoxycyclohexyl)methyl)-7H-pyrrolo[2,3-d]pyrimidin-2-yl)amino)-1H-pyrazol-1-yl)acetate]
IC50 [1]: 100 to 1000 nM
IC50 [2]: < 100 nM
IC50 [3]: < 100 nM
IC50 [4]: < 100 nM

CCOC(=O)Cn1cc(Nc2ncc3ccn(C[C@H]4CCC[C@@H](OC)C4)c3n2)cn1 [Compound 130, ethyl 2-(4-((7-(((1S,3R)-3-methoxycyclohexyl)methyl)-7H-pyrrolo[2,3-d]pyrimidin-2-yl)amino)-1H-pyrazol-1-yl)acetate]
IC50 [1]: < 100 nM
IC50 [2]: < 100 nM
IC50 [3]: < 100 nM
IC50 [4]: < 100 nM

CCOC(=O)Cn1cc(Nc2ncc3ccn(C[C@@H]4CCC[C@@H](OC)C4)c3n2)cn1 [Compound 131, ethyl 2-(4-((7-(((1R,3R)-3-methoxycyclohexyl)methyl)-7H-pyrrolo[2,3-d]pyrimidin-2-yl)amino)-1H-pyrazol-1-yl)acetate]
IC50 [1]: 100 to 1000 nM
IC50 [2]: < 100 nM
IC50 [3]: < 100 nM
IC50 [4]: < 100 nM

CC[C@@H](Cn1ccc2cnc(Nc3cnn(CC(=O)OC(C)C)c3)nc21)C(C)C [Compound 132, isopropyl (R)-2-(4-((7-(2-ethyl-3-methylbutyl)-7H-pyrrolo[2,3-d]pyrimidin-2-yl)amino)-1H-pyrazol-1-yl)acetate]
IC50 [1]: < 100 nM
IC50 [2]: < 100 nM
IC50 [3]: < 100 nM
IC50 [4]: < 100 nM

CCOC(=O)Cn1cc(Nc2ncc3ccn(C[C@H](CC)C(C)C)c3n2)cn1 [Compound 133, ethyl (R)-2-(4-((7-(2-ethyl-3-methylbutyl)-7H-pyrrolo[2,3-d]pyrimidin-2-yl)amino)-1H-pyrazol-1-yl)acetate]
IC50 [1]: < 100 nM
IC50 [2]: < 100 nM
IC50 [3]: < 100 nM
IC50 [4]: < 100 nM

CC[C@H](Cn1ccc2cnc(Nc3cnn(CC(=O)OC(C)C)c3)nc21)C(C)C [Compound 134, isopropyl (S)-2-(4-((7-(2-ethyl-3-methylbutyl)-7H-pyrrolo[2,3-d]pyrimidin-2-yl)amino)-1H-pyrazol-1-yl)acetate]
IC50 [1]: < 100 nM
IC50 [2]: < 100 nM
IC50 [3]: < 100 nM
IC50 [4]: < 100 nM

CCOC(=O)Cn1cc(Nc2ncc3ccn(C[C@@H](CC)C(C)C)c3n2)cn1 [Compound 135, ethyl (S)-2-(4-((7-(2-ethyl-3-methylbutyl)-7H-pyrrolo[2,3-d]pyrimidin-2-yl)amino)-1H-pyrazol-1-yl)acetate]
IC50 [1]: < 100 nM
IC50 [2]: < 100 nM
IC50 [3]: < 100 nM
IC50 [4]: < 100 nM

CC[C@H](Cn1ccc2cnc(Nc3cnn(C(CCO)C(=O)O)c3)nc21)C(C)C (stereo partly drawn) [Compound 136, 2-(4-((7-((S)-2-ethyl-3-methylbutyl)-7H-pyrrolo[2,3-d]pyrimidin-2-yl)amino)-1H-pyrazol-1-yl)-4-hydroxybutanoic acid]
IC50 [1]: < 100 nM
IC50 [2]: < 100 nM
IC50 [3]: < 100 nM
IC50 [4]: < 100 nM

CCC(Cn1ccc2cnc(Nc3cnn(C(=O)OC(C)(C)C)c3)nc21)C(C)C (centres unmarked) [Compound 137, tert-butyl 4-((7-(2-ethyl-3-methylbutyl)-7H-pyrrolo[2,3-d]pyrimidin-2-yl)amino)-1H-pyrazole-1-carboxylate]
IC50 [1]: < 100 nM
IC50 [2]: < 100 nM
IC50 [3]: < 100 nM
IC50 [4]: < 100 nM

CC[C@H](Cn1ccc2cnc(Nc3cnn(CC(=O)O[C@H]4CCN(C)C4)c3)nc21)C(C)C [Compound 138, (S)-1-methylpyrrolidin-3-yl 2-(4-((7-((S)-2-ethyl-3-methylbutyl)-7H-pyrrolo[2,3-d]pyrimidin-2-yl)amino)-1H-pyrazol-1-yl)acetate]
IC50 [1]: < 100 nM
IC50 [2]: < 100 nM
IC50 [3]: < 100 nM
IC50 [4]: < 100 nM

CC[C@H](Cn1ccc2cnc(Nc3cnn(CC(=O)O[C@@H]4CCN(C)C4)c3)nc21)C(C)C [Compound 139, (R)-1-methylpyrrolidin-3-yl 2-(4-((7-((S)-2-ethyl-3-methylbutyl)-7H-pyrrolo[2,3-d]pyrimidin-2-yl)amino)-1H-pyrazol-1-yl)acetate]
IC50 [1]: < 100 nM
IC50 [2]: < 100 nM
IC50 [3]: < 100 nM
IC50 [4]: < 100 nM

CC[C@H](Cn1ccc2cnc(Nc3cnn(CC(=O)OC4COC4)c3)nc21)C(C)C [Compound 140, oxetan-3-yl (S)-2-(4-((7-(2-ethyl-3-methylbutyl)-7H-pyrrolo[2,3-d]pyrimidin-2-yl)amino)-1H-pyrazol-1-yl)acetate]
IC50 [1]: < 100 nM
IC50 [2]: < 100 nM
IC50 [3]: < 100 nM
IC50 [4]: < 100 nM

CC[C@H](Cn1ccc2cnc(Nc3cnn(CC(=O)OCC4COC4)c3)nc21)C(C)C [Compound 141, oxetan-3-ylmethyl (S)-2-(4-((7-(2-ethyl-3-methylbutyl)-7H-pyrrolo[2,3-d]pyrimidin-2-yl)amino)-1H-pyrazol-1-yl)acetate]
IC50 [1]: < 100 nM
IC50 [2]: < 100 nM
IC50 [3]: < 100 nM
IC50 [4]: < 100 nM

CCC(CC)Cn1ccc2cnc(Nc3cnn(C4CCOC4=O)c3)nc21 (centres unmarked) [Compound 142, 3-(4-((7-(2-ethylbutyl)-7H-pyrrolo[2,3-d]pyrimidin-2-yl)amino)-1H-pyrazol-1-yl)dihydrofuran-2(3H)-one]
IC50 [1]: < 100 nM
IC50 [2]: < 100 nM
IC50 [3]: < 100 nM
IC50 [4]: < 100 nM

CC[C@H](Cn1ccc2cnc(Nc3cnn(C4CC(C)(C)OC4=O)c3)nc21)C(C)C (stereo partly drawn) [Compound 144, 3-(4-((7-((S)-2-ethyl-3-methylbutyl)-7H-pyrrolo[2,3-d]pyrimidin-2-yl)amino)-1H-pyrazol-1-yl)-5,5-dimethyldihydrofuran-2(3H)-one]
IC50 [1]: < 100 nM
IC50 [2]: < 100 nM
IC50 [3]: < 100 nM
IC50 [4]: < 100 nM

CN1CC[C@@H](OC(=O)Cn2cc(Nc3ncc4ccn(C[C@H]5CC[C@H](O)CC5)c4n3)cn2)C1 [Compound 146, (R)-1-methylpyrrolidin-3-yl 2-(4-((7-(((1r,4r)-4-hydroxycyclohexyl)methyl)-7H-pyrrolo[2,3-d]pyrimidin-2-yl)amino)-1H-pyrazol-1-yl)acetate]
IC50 [1]: < 100 nM
IC50 [2]: < 100 nM
IC50 [3]: < 100 nM
IC50 [4]: < 100 nM

CC[C@H](Cn1ccc2cnc(Nc3cnn(C(CC(C)(C)O)C(=O)O)c3)nc21)C(C)C (stereo partly drawn) [Compound 147, 2-(4-((7-((S)-2-ethyl-3-methylbutyl)-7H-pyrrolo[2,3-d]pyrimidin-2-yl)amino)-1H-pyrazol-1-yl)-4-hydroxy-4-methylpentanoic acid]
IC50 [1]: < 100 nM
IC50 [2]: < 100 nM
IC50 [3]: < 100 nM
IC50 [4]: < 100 nM
